The numbers were not newly measured in patent US9480691B1, “Topical liquid containing refined peanut oil for treating skin proliferation or inflammation disorders” (Hill Dermaceuticals, Inc., priority 2009, dated 2016), which cites them from elsewhere.

Structures are written as SMILES.

This series has as its system hypothalamus-pituitary-adrenal (HPA) axis. The conditions noted are these: at effective and prescribed doses.

For `CCC(=O)O[C@]1(C(=O)CCl)[C@@H](C)C[C@H]2[C@@H]3CCC4=CC(=O)C=C[C@]4(C)[C@@]3(F)[C@@H](O)C[C@@]21C` [clobetasol propionate, (11β,16β)-21-chloro-9-fluoro-11-hydroxy-16-methyl-17-(1-oxo-propoxy)pregna-1,4-diene,3,10-dione], the “effect on HPA axis” value was “suppress the hypothalamus-pituitary-adrenal (HPA) axis”.
